Assay results: US20090143279A1 (priority 2007, published 2009)
Read-outs that look alike come from different tables or passages of the source.

Key:
[1] = system: reactive oxygen species; type: cell-based, mouse; conditions: for ROS (composite Z-score): normalized score vs mock-treated (DMSO) wells
[2] = system: C2C12 myotubes; conditions: for Viability (composite Z-score): normalized score vs mock-treated (DMSO) wells
[3] = system: mitochondrial membrane potential; type: cell-based, mouse; conditions: for ΔΨm (composite Z-score): normalized score vs mock-treated (DMSO) wells
[4] = system: nuOXPHOS transcripts; type: cell-based, mouse; conditions: for nucOX (composite Z-score): normalized score vs mock-treated (DMSO) wells
[5] = system: cellular dehydrogenase activity; conditions: for MTT (composite Z-score): normalized score vs mock-treated (DMSO) wells
[6] = system: mtOXPHOS transcripts; type: cell-based, mouse; conditions: for mitoOX (composite Z-score): normalized score vs mock-treated (DMSO) wells
[7] = system: cytochrome c; type: cell-based, mouse; conditions: for cyt c (composite Z-score): normalized score vs mock-treated (DMSO) wells
[8] = system: OXPHOS gene expression; type: cell-based, mouse; conditions: for GE-HTS (composite Z-score): normalized score vs mock-treated (DMSO) wells
[9] = normalized composite Z-score vs mock-treated (DMSO) wells, Conc 20 μM
[10] = composite Z-score vs mock-treated (DMSO) wells, concentration of each compound in μM
[11] = composite Z-score vs DMSO, Conc 20 μM
[12] = composite Z-score vs mock-treated (DMSO) wells, Conc 20 μM
[13] = Table 7, C2C12 myotubes, 48 h, composite Z-score

## C[C@@H]1CC[C@@]2(OC1)O[C@H]1C[C@H]3[C@@H]4CC[C@H]5C[C@@H](O)CC[C@]5(C)C4=CC[C@]3(C)[C@H]1[C@@H]2C [hydroxy (3beta)isoallospirost-9 (11)-ene]
[1]; [9]
  ROS: 0.244
[2]; [9]
  Viability: 0.035
[3]; [9]
  ΔΨm: −0.423
[4]; [9]
  nucOX: −0.619
[5]; [9]
  MTT: −1.944
[6]; [9]
  mitoOX: −0.081
[7]; [9]
  cyt c: −0.048
[8]; [9]
  GE-HTS: −0.457

## CN[C@H]1C[C@@H](N)[C@H](O)[C@@H](O[C@@H]2O[C@H](CO)[C@H](O)[C@@H]3OC4(O[C@H]23)O[C@H]([C@@H](N)CO)[C@H](O)[C@H](O)[C@H]4O)[C@@H]1O (stereo partly drawn) [hygromycin B]
[1]; [10]
  ROS: 0.707
[2]; [10]
  Viability: −1.526
[3]; [10]
  ΔΨm: −0.752
[4]; [10]
  nucOX: 0.800
[5]; [10]
  MTT: −2.041
[6]; [10]
  mitoOX: −0.054
[7]; [10]
  cyt c: −0.478
[8]; [10]
  GE-HTS: 0.558

## COc1cc2c(cc1-c1coc3c4c(c(OC)cc3c1=O)OC(C)(C)C=C4)OCO2 [ichthynone, reference compound]
[1]; Conc 20 μM
  ROS (composite Z-score): 1.842
[2]; Conc 20 μM
  Viability (composite Z-score): 0.234
[3]; Conc 20 μM
  ΔΨm (composite Z-score): −0.325
[4]; Conc 20 μM
  nucOX (composite Z-score): −0.088
[5]; Conc 20 μM
  MTT (composite Z-score): −0.681
[6]; Conc 20 μM
  mitoOX (composite Z-score): −0.466
[7]; Conc 20 μM
  cyt c (composite Z-score): 0.001
[8]; Conc 20 μM
  GE-HTS (composite Z-score): −0.217

## O=[N+]([O-])NC1=NCCN1Cc1ccc(Cl)nc1 [imidacloprid]
[1]; [11]
  ROS: 0.075
[2]; [11]
  Viability: −0.121
[3]; [11]
  ΔΨm: −0.019
[4]; [11]
  nucOX: −0.214
[5]; [11]
  MTT: −0.893
[6]; [11]
  mitoOX: −0.368
[7]; [11]
  cyt c: 0.607
[8]; [11]
  GE-HTS: −0.294

## COc1c(O)cc(O)cc1O [iretol]
[1]; [12]
  ROS: −0.393
[2]; [12]
  Viability: −0.552
[3]; [12]
  ΔΨm: −0.404
[4]; [12]
  nucOX: −0.583
[5]; [12]
  MTT: −0.086
[6]; [12]
  mitoOX: −1.366
[7]; [12]
  cyt c: 0.347
[8]; [12]
  GE-HTS: −0.881

## COc1cc(-c2coc3cc(O[C@@H]4O[C@H](CO)[C@@H](O)[C@H](O)[C@H]4O)c(OC)c(O)c3c2=O)cc(O)c1OC [iridin]
[1]; [12]
  ROS: 0.927
[2]; [12]
  Viability: −0.441
[3]; [12]
  ΔΨm: 0.076
[4]; [12]
  nucOX: −0.602
[5]; [12]
  MTT: −1.958
[6]; [12]
  mitoOX: −0.990
[7]; [12]
  cyt c: −0.474
[8]; [12]
  GE-HTS: −0.755

## COc1cc(-c2coc3cc(OC)c(OC)c(OC)c3c2=O)cc(OC)c1OC [irigenin trimethyl ether]
[1]; [12]
  ROS: −0.074
[2]; [12]
  Viability: −0.060
[3]; [12]
  ΔΨm: −0.174
[4]; [12]
  nucOX: −0.790
[5]; [12]
  MTT: −0.808
[6]; [12]
  mitoOX: −0.699
[7]; [12]
  cyt c: 0.129
[8]; [12]
  GE-HTS: −0.792

## COc1cc(-c2coc3cc(OCc4ccccc4)c(OC)c(O)c3c2=O)cc(O)c1OC [irigenin, 7-benzyl ether]
[1]; [12]
  ROS: 1.548
[2]; [12]
  Viability: −0.334
[3]; [12]
  ΔΨm: 0.948
[4]; [12]
  nucOX: −1.386
[5]; [12]
  MTT: −1.179
[6]; [12]
  mitoOX: −1.100
[7]; [12]
  cyt c: −0.617
[8]; [12]
  GE-HTS: −1.362

## COc1cc(-c2coc3cc(OCc4ccccc4)c(OC)c(O)c3c2=O)cc(OCc2ccccc2)c1OC [irigenin, dibenzyl ether]
[1]; [11]
  ROS: 0.088
[2]; [11]
  Viability: −1.724
[3]; [11]
  ΔΨm: 0.178
[4]; [11]
  nucOX: −0.163
[5]; [11]
  MTT: −0.793
[6]; [11]
  mitoOX: −0.602
[7]; [11]
  cyt c: 0.012
[8]; [11]
  GE-HTS: −0.325

## O=c1c(-c2cc(O)c(O)c(O)c2)coc2cc(O)c(O)c(O)c12 [irigenol]
[1]; [11]
  ROS: −1.001
[2]; [11]
  Viability: 0.249
[3]; [11]
  ΔΨm: −0.374
[4]; [11]
  nucOX: −0.838
[5]; [11]
  MTT: −0.810
[6]; [11]
  mitoOX: −1.938
[7]; [11]
  cyt c: 0.410
[8]; [11]
  GE-HTS: −1.274

## CC(=O)Oc1cc(-c2coc3cc(OC(C)=O)c(OC(C)=O)c(OC(C)=O)c3c2=O)cc(OC(C)=O)c1OC(C)=O [iriginol hexaaceatate]
[1]; [12]
  ROS: 0.815
[2]; [12]
  Viability: −0.291
[3]; [12]
  ΔΨm: −0.204
[4]; [12]
  nucOX: 0.859
[5]; [12]
  MTT: −0.565
[6]; [12]
  mitoOX: 0.938
[7]; [12]
  cyt c: −0.315
[8]; [12]
  GE-HTS: 0.928

## COc1cc2occc2c2oc(=O)ccc12 [isobergaptene]
[1]; [12]
  ROS: 1.329
[2]; [12]
  Viability: 0.375
[3]; [12]
  ΔΨm: −0.112
[4]; [12]
  nucOX: 0.338
[5]; [12]
  MTT: −1.025
[6]; [12]
  mitoOX: 0.715
[7]; [12]
  cyt c: 0.486
[8]; [12]
  GE-HTS: 0.514

## COc1ccc2c(c1O)-c1c(OC)c(OC)cc3c1[C@H](C2)N(C)CC3 [isocorydine]
[1]; Conc 11.72 μM
  ROS (composite Z-score): 1.214
[1]; Conc 20 μM
  ROS (composite Z-score): −0.096
[2]; Conc 11.72 μM
  Viability (composite Z-score): −1.678
[2]; Conc 20 μM
  Viability (composite Z-score): 1.230
[3]; Conc 11.72 μM
  ΔΨm (composite Z-score): −1.052
[3]; Conc 20 μM
  ΔΨm (composite Z-score): −0.017
[4]; Conc 11.72 μM
  nucOX (composite Z-score): 0.451
[4]; Conc 20 μM
  nucOX (composite Z-score): −0.463
[5]; Conc 11.72 μM
  MTT (composite Z-score): −1.041
[5]; Conc 20 μM
  MTT (composite Z-score): −1.215
[6]; Conc 11.72 μM
  mitoOX (composite Z-score): −0.664
[6]; Conc 20 μM
  mitoOX (composite Z-score): −0.322
[7]; Conc 11.72 μM
  cyt c (composite Z-score): 0.632
[7]; Conc 20 μM
  cyt c (composite Z-score): 0.355
[8]; Conc 11.72 μM
  GE-HTS (composite Z-score): 0.084
[8]; Conc 20 μM
  GE-HTS (composite Z-score): −0.462

## Cc1cc(=O)c2c(O)cc(O)c(C)c2o1 [isoeugenitol]
[1]; [12]
  ROS: 1.129
[2]; [12]
  Viability: 0.377
[3]; [12]
  ΔΨm: 0.369
[4]; [12]
  nucOX: −0.647
[5]; [12]
  MTT: −0.500
[6]; [12]
  mitoOX: −0.680
[7]; [12]
  cyt c: 0.662
[8]; [12]
  GE-HTS: −0.717

## COc1ccc(-c2cc(=O)c3c(O)cc(O)c(-c4cc(-c5cc(=O)c6c(O)cc(O)cc6o5)ccc4OC)c3o2)cc1 [isoginkgetin]
[1]; [9]
  ROS: 1.106
[2]; [9]
  Viability: 2.182
[3]; [9]
  ΔΨm: −4.387
[4]; [9]
  nucOX: −0.318
[5]; [9]
  MTT: −1.024
[6]; [9]
  mitoOX: −1.087
[7]; [9]
  cyt c: −0.400
[8]; [9]
  GE-HTS: −0.589

## C=C1CCC2C(CC2(C)C)C(=O)CCC1O (stereo not drawn) [isokobusone]
[1]; [11]
  ROS: −0.201
[2]; [11]
  Viability: −0.090
[3]; [11]
  ΔΨm: −0.283
[4]; [11]
  nucOX: −0.813
[5]; [11]
  MTT: −0.507
[6]; [11]
  mitoOX: −0.713
[7]; [11]
  cyt c: 0.480
[8]; [11]
  GE-HTS: −0.848

## COc1cc(O)ccc1C(C)=O [isopeonol]
[1]; [11]
  ROS: −0.219
[2]; [11]
  Viability: −1.180
[3]; [11]
  ΔΨm: 0.271
[4]; [11]
  nucOX: 0.134
[5]; [11]
  MTT: −0.831
[6]; [11]
  mitoOX: −0.635
[7]; [11]
  cyt c: 0.734
[8]; [11]
  GE-HTS: −0.109

## COc1cc2c(cc1OC)[C@@H]1C(=O)c3ccc4oc(C(C)C)cc4c3O[C@@H]1CO2 [isorotenone, reference compound]
[1]; [9]
  ROS: −0.782
[2]; [9]
  Viability: −1.954
[3]; [9]
  ΔΨm: −1.329
[4]; [13]
  nucOXPHOS Z: −3.02
[4]; [9]
  nucOX: −3.017
[5]; [9]
  MTT: −4.373
[6]; [13]
  mito-OXPHOS Z: −4.57
[6]; [9]
  mitoOX: −4.571
[7]; [9]
  cyt c: −3.397
[8]; [9]
  GE-HTS: −3.751

## CC=Cc1ccc2c(c1)OCO2 [isosafrole]
[1]; [12]
  ROS: 0.397
[2]; [12]
  Viability: −0.798
[3]; [12]
  ΔΨm: −1.060
[4]; [12]
  nucOX: −0.860
[5]; [12]
  MTT: −0.913
[6]; [12]
  mitoOX: −1.917
[7]; [12]
  cyt c: 0.462
[8]; [12]
  GE-HTS: −1.283
